Values of other authors, collected in patent publication US11173114B1, “Method and system for manufacturing and oral soluble films and oral soluble films made by thereby” (NOVA Thin Film Pharmaceuticals LLC, priority 2020, dated 2021).
Like-named read-outs stand apart in the source and are kept apart here.

O [Water]
Surface tension (head printed □) (25 ° C.): 71.97 mN/m | Surface tension (head printed □) (40 ° C.): 69.56 mN/m | Surface tension (head printed □) (80 ° C.): 62.6 mN/m
